In patent US10730913B1, “Antimicrobial analogues of gramicidin S” (priority 2018, dated 2020):
Numbered stars: 1 amine (or outer) side, 2 acyl side, 3 side chain; on linkers, the order of the positions; unused ones are H or OH. Square brackets hold non-standard residues; d marks the D form. Peptide text beside a SMILES is read from it. X1 = NN([C@H](Cc1ccccc1)C(=O)[*:2])[*:1]; Orn(Nα-NH2) = NCCC[C@H](NN)C(=O)O; Orn = NCCC[C@H](N)C(=O)O

Assays:
Assay type in all cases: cell-based
[1] = test system: Human red blood cells (hRBCs); experiment: Hemolysis assay using whole human blood; conditions: for Hemolytic Activity (% Hemolysis): hRBCs, 15 min at 37° C., relative to 1.0% triton X-100
Experimental: Hemolytic Activity: The hemolytic activity of the compounds disclosed herein was also tested. A hemolysis assay was performed using whole human blood (Bioreclamation). […] Cells were incubated for 15 min at 37° C. before being centrifuged at 5500 g for 1 min to pellet nonlysed hRBCs. The supernatant was removed, added to a 96-well microtiter plate, and the OD543 was read using a Biotek synergy2 plate reader. The negative control was vehicle only (DMSO), and the positive control was 1.0% triton X-100.

Acinetobacter baumannii = experiment: MIC determination against ESKAPE pathogens (broth culture, 96-well, turbidity); conditions: Acinetobacter baumannii strain 5075; 37° C.
Experimental: (§1) The antimicrobial activity of the compounds disclosed herein was tested against a variety of bacteria. The bacterial strains comprised a panel of drug-resistant gram-positive and gram-negative bacteria known as ESKAPE pathogens. The minimum inhibitory concentration (MIC) for the compounds were determined as follows. Broth cultures of ESKAPE strains were grown overnight before being diluted 1 in 1000 in fresh media. Sterile 96-well plates were loaded with culture, and compounds (in DMSO) were added at decreasing concentrations to equal a total volume of 200 μL per well. Care was taken to not add more than 2.0% DMSO to any well. Plates were then incubated at 37° C., and MICs determined after 24 h by visual inspection for a lack of turbidity in wells. All assays were performed in triplicate with identical results obtained.

Enterobacter cloacae = experiment: as above; conditions: Enterobacter cloacae strain 1454; 37° C.
Experimental: as §1

Enterococcus faecium = experiment: as above; conditions: Enterococcus faecium strain 1450; 37° C.
Experimental: as §1

Pseudomonas aeruginosa = experiment: as above; conditions: Pseudomonas aeruginosa strain 1419; 37° C.
Experimental: as §1

Staphylococcus aureus = experiment: as above; conditions: Staphylococcus aureus strain 635; 37° C.
Experimental: as §1

gram-negative bacteria = experiment: Antimicrobial activity, summary for gram-negative bacteria; conditions: compared to GS
Experimental: as §1

Compound	Hemolytic Activity (% Hemolysis) ([1]; 6.25 μM) [%]	Hemolytic Activity (% Hemolysis) ([1]; 12.5 μM) [%]	Hemolytic Activity (% Hemolysis) ([1]; 25 μM) [%]	Hemolytic Activity (% Hemolysis) ([1]; 50 μM) [%]	MC90 Results, Ab (−) (Acinetobacter baumannii) [µM]	MC90 Results, Ec (−) (Enterobacter cloacae) [µM]	MC90 Results, Ef (+) (Enterococcus faecium) [µM]	MC90 Results, Pa (−) (Pseudomonas aeruginosa) [µM]	MC90 Results, Sa (+) (Staphylococcus aureus) [µM]	activity against gram-negative bacteria (gram-negative bacteria)	toxicity to human cells compared to GS [1]
CC(C)C[C@@H]1NC(=O)[C@H](CCCN)NC(=O)[C@H](C(C)C)NC(=O)[C@@H]2CCCN2C(=O)[C@@H](Cc2ccccc2)N(N)C(=O)[C@H](CC(C)C)NC(=O)[C@H](CCCN)N(N)C(=O)[C@H](C(C)C)NC(=O)[C@@H]2CCCN2C(=O)[C@@H](Cc2ccccc2)N(N)C1=O [Compound 5] (cyclo(L[X1]PV[Orn]L[X1]PV[Orn(Nα-NH2)]))	0.21	0.00	2.82	17.93							
CC(C)C[C@@H]1NC(=O)[C@H](CCCN)NC(=O)[C@H](C(C)C)NC(=O)[C@@H]2CCCN2C(=O)[C@@H](Cc2ccccc2)N(N)C(=O)[C@H](CC(C)C)NC(=O)[C@H](CCCN)NC(=O)[C@H](C(C)C)NC(=O)[C@@H]2CCCN2C(=O)[C@@H](Cc2ccccc2)N(N)C1=O [Compound 2] (HELM PEPTIDE1{L.[NN([C@H](Cc1ccccc1)C(=O)[*:2])[*:1]].P.V.[Orn].L.[NN([C@H](Cc1ccccc1)C(=O)[*:2])[*:1]].P.V.[Orn]}$PEPTIDE1,PEPTIDE1,1:R1-10:R2$$$V2.0)	0.00	0.00	2.84	11.24	12.5	>50	4	35	4		
CC(C)C[C@@H]1NC(=O)[C@H](CCCN)N(N)C(=O)[C@H](C(C)C)NC(=O)[C@@H]2CCCN2C(=O)[C@@H](Cc2ccccc2)N(N)C(=O)[C@H](CC(C)C)NC(=O)[C@H](CCCN)NC(=O)[C@H](C(C)C)NC(=O)[C@@H]2CCCN2C(=O)[C@@H](Cc2ccccc2)NC1=O [Compound 4] (HELM PEPTIDE1{L.[dF].P.V.[Orn].L.[NN([C@H](Cc1ccccc1)C(=O)[*:2])[*:1]].P.V.[NCCC[C@@H](C(=O)[*:2])N(N)[*:1]]}$PEPTIDE1,PEPTIDE1,1:R1-10:R2$$$V2.0)	0.00	0.00	1.98	14.00	6.5	30	3	15	2		
CC(C)C[C@@H]1NC(=O)[C@H](CCCN)NC(=O)[C@H](C(C)C)NC(=O)[C@@H]2CCCN2C(=O)[C@@H](Cc2ccccc2)N(N)C(=O)[C@H](CC(C)C)NC(=O)[C@H](CCCN)NC(=O)[C@H](C(C)C)NC(=O)[C@@H]2CCCN2C(=O)[C@@H](Cc2ccccc2)NC1=O [Compound 1] (HELM PEPTIDE1{L.[dF].P.V.[Orn].L.[NN([C@H](Cc1ccccc1)C(=O)[*:2])[*:1]].P.V.[Orn]}$PEPTIDE1,PEPTIDE1,1:R1-10:R2$$$V2.0)	0.00	0.00	0.00	0.00	>50	>50	>50	>50	>50		
CC(C)C[C@@H]1NC(=O)[C@H](CCCN)NC(=O)[C@H](C(C)C)NC(=O)[C@@H]2CCCN2C(=O)[C@@H](Cc2ccccc2)N(N)C(=O)[C@H](CC(C)C)NC(=O)[C@H](CCCN)N(N)C(=O)[C@H](C(C)C)NC(=O)[C@@H]2CCCN2C(=O)[C@@H](Cc2ccccc2)NC1=O [Compound 6] (HELM PEPTIDE1{L.[dF].P.V.[NCCC[C@@H](C(=O)[*:2])N(N)[*:1]].L.[NN([C@H](Cc1ccccc1)C(=O)[*:2])[*:1]].P.V.[Orn]}$PEPTIDE1,PEPTIDE1,1:R1-10:R2$$$V2.0)	0.00	0.00	3.24	17.91							
CC(C)C[C@@H]1NC(=O)[C@H](CCCN)N(N)C(=O)[C@H](C(C)C)NC(=O)[C@@H]2CCCN2C(=O)[C@@H](Cc2ccccc2)N(N)C(=O)[C@H](CC(C)C)NC(=O)[C@H](CCCN)N(N)C(=O)[C@H](C(C)C)NC(=O)[C@@H]2CCCN2C(=O)[C@@H](Cc2ccccc2)NC1=O [Compound 8] (cyclo(L[dF]PV[Orn(Nα-NH2)]L[X1]PV[Orn(Nα-NH2)]))	0.00	0.88	2.91	15.07	6	>50	2	12	2		
CC(C)C[C@@H]1NC(=O)[C@H](CCCN)N(N)C(=O)[C@H](C(C)C)NC(=O)[C@@H]2CCCN2C(=O)[C@@H](Cc2ccccc2)NC(=O)[C@H](CC(C)C)NC(=O)[C@H](CCCN)N(N)C(=O)[C@H](C(C)C)NC(=O)[C@@H]2CCCN2C(=O)[C@@H](Cc2ccccc2)NC1=O [Compound 7] (HELM PEPTIDE1{L.[dF].P.V.[NCCC[C@@H](C(=O)[*:2])N(N)[*:1]].L.[dF].P.V.[NCCC[C@@H](C(=O)[*:2])N(N)[*:1]]}$PEPTIDE1,PEPTIDE1,1:R1-10:R2$$$V2.0)	0.00	0.21	3.57	15.84	4	20	2	10	2	improved significantly	
CC(C)C[C@@H]1NC(=O)[C@H](CCCN)N(N)C(=O)[C@H](C(C)C)NC(=O)[C@@H]2CCCN2C(=O)[C@@H](Cc2ccccc2)N(N)C(=O)[C@H](CC(C)C)NC(=O)[C@H](CCCN)N(N)C(=O)[C@H](C(C)C)NC(=O)[C@@H]2CCCN2C(=O)[C@@H](Cc2ccccc2)N(N)C1=O [Compound 9] (cyclo(L[X1]PV[Orn(Nα-NH2)]L[X1]PV[Orn(Nα-NH2)]))	0.00	2.75	6.19	25.01	5	>50	2	15	2		exception
CC(C)C[C@@H]1NC(=O)[C@H](CCCN)NC(=O)[C@H](C(C)C)NC(=O)[C@@H]2CCCN2C(=O)[C@@H](Cc2ccccc2)NC(=O)[C@H](CC(C)C)NC(=O)[C@H](CCCN)N(N)C(=O)[C@H](C(C)C)NC(=O)[C@@H]2CCCN2C(=O)[C@@H](Cc2ccccc2)NC1=O [Compound 3] (HELM PEPTIDE1{L.[dF].P.V.[Orn].L.[dF].P.V.[NCCC[C@@H](C(=O)[*:2])N(N)[*:1]]}$PEPTIDE1,PEPTIDE1,1:R1-10:R2$$$V2.0)	0.00	0.00	1.49	13.68	6.5	30	3	13	2		
